{
  "source": "patent US20210371895A1",
  "about": "“BACTERIAL RESPONSE” (BioFire Diagnostics, LLC, priority 2018, published 2021)",
  "key": {"lasI": {"test_system": "lasI", "experiment": "Benchtop RT-PCR Cp of lasI transcript, strains S1/R1 with ciprofloxacin", "assay_type": "cell-based, P. aeruginosa", "conditions": "15 μg/mL Ciprofloxacin for 10 minutes, cDNA 1:100 dilution", "method": "(§1) P. aeruginosa, two strains: one that is resistant and the other susceptible. • S1=susceptible to Ciprofloxacin • R1=resistant to Ciprofloxacin\n(§2) In this example, each strain (S1 and R1) was grown to 0.5 OD600 (-1×10^8 CFU/mL) and each was treated with or without 15 μg/mL of Ciprofloxacin for 10 minutes (two strains, each +/− antibiotic, provides four test conditions). It is understood that the OD and antibiotic incubation time are illustrative only and that other concentrations and times may be used. cDNA was generated by extracting on Magnapure using TNA kit, following bacterial lysis protocol, quantifying using Qubit RNA HS Assay Kit (Q32852), genomic DNA removed and cDNA generated using Maxima H Minus cDNA Kit with dsDNAse (M1682).\nFor some of these genes, a similar ΔCp between susceptible and resistant strains was found both with and without the presence of antibiotics. Such genes are referred to as “generic antibiotic resistance genes” as they distinguish between susceptible and resistant strains even in the absence of antibiotics. Several of these generic antibiotic resistance genes are in the quorum sensing pathway or the iron uptake pathway, while the pathway for several others are unknown. These genes included LasI, RhlI, pqsH, pvdE, PepSY, speD, PA14_RS20905, and coA. […]"}, "lexA [1]": {"test_system": "lexA", "experiment": "Benchtop RT-PCR Cp of lexA transcript, strains S1/R1 with ciprofloxacin", "assay_type": "cell-based, P. aeruginosa", "conditions": "15 μg/mL Ciprofloxacin for 10 minutes, cDNA 1:100 dilution", "method": "as §1, §2\nFor other genes, significant ΔCp was found only in the presence of antibiotics. These “specific antibiotic resistance genes” include lexA, sulA, ptrB, and, PA14_RS07985, with ptrB showing up-regulation in the resistant strain. The amplification curves for lexA are shown in FIG. 5B, where the susceptible strain with antibiotic has a Cp about 2 cycles earlier than the other three conditions. For the other three conditions, the resistant strain with and without antibiotics had essentially the same Cp as the susceptible strain without antibiotics."}, "lexA [2]": {"test_system": "lexA", "experiment": "Pouch panel (+dsDNAse +RT) relative expression level of lexA after ciprofloxacin exposure", "assay_type": "cell-based, Pseudomonas aeruginosa", "conditions": "7.5 or 15 μg/mL ciprofloxacin, 10, 30 and 60 minutes, versus zero ciprofloxacin", "excerpt": "In this illustrative example, a pouch similar to pouch 510 was developed to include a DNase treatment step by including DNAse, illustratively a dsDNAse from Pandalus borealis, freeze dried into the fitment, as well as a slight modification in the elution buffer that is freeze dried into injection channel 515e, although it is understood that this dsDNAse is illustrative only and that other DNAses can be used, as well as other DNA removal methods. For the DNAse step, subsequent to elution, the temperature is raised to a temperature suitable for the DNAse enzyme, illustratively 42° C., followed by reverse-transcription and first-stage multiplex PCR. In this example, the pouch contained 45 different assays of interest (including control genes such as rpoD), targets where mRNA is present in concentrations greater than genomic (“high copy targets”) such as PA14_RS28865, as well as a number of antibiotic resistance gene targets including recA (specific) and lasI (generic) that are present in concentrations lower than genomic. However, it is understood that this panel of assays is illustrative only, and any combination of assays may be used. In one illustrative embodiment, all assays are for RNA targets, illustratively mRNA targets, although other RNA targets may be suitable for detection and/or quantification using the methods provided herein. […]"}},
  "data": [
    {"smiles": "O=C(O)c1cn(C2CC2)c2cc(N3CCNCC3)c(F)cc2c1=O", "note": "[Ciprofloxacin]", "values": [
      {"measurement": "Cp of lasI amplification curve", "setting": "lasI; Resistant strain +ABX", "value": 15.15},
      {"measurement": "Cp of lasI amplification curve", "setting": "lasI; Susceptible strain +ABX", "value": 10.55},
      {"measurement": "Cp of lexA amplification curve", "setting": "lexA [1]; Resistant strain +ABX", "value": 18.55},
      {"measurement": "Cp of lexA amplification curve", "setting": "lexA [1]; Susceptible strain +ABX", "value": 16.36},
      {"measurement": "relative expression of lexA (geometric mean normalized Cp)", "setting": "lexA [2]; resistant strain", "value": "did not change"},
      {"measurement": "relative expression of lexA (geometric mean normalized Cp)", "setting": "lexA [2]; susceptible strain", "value": "clear time dependent induction"}
    ]}
  ]
}
